Experimental data published in the supplement of paper PMC11451515.

System: NOMO1
Experiment: cell viability relative to DMSO control; higher = less cytotoxic
Conditions: 48 h
Method in brief: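 NOMO1 or SEM (500 cells/well) or P12-Ichikawa (1000 cells/well) leukemia cells were adapted for at least four passages in each medium. They were seeded in 1536-well plates (5 μl) and pin-dosed with library compounds in DMSO over an 11-point threefold series, 47 μM to 0.79 nM. CellTiter-Glo One luminescence was read after 48 h at 37°C. Viability is the per-plate percentage relative to DMSO wells, with cell-free wells as background.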

[1] = HPLM + 10% dialyzed FBS, 0.000781 µM
[2] = HPLM + 10% dialyzed FBS, 0.00234 µM
[3] = HPLM + 10% dialyzed FBS, 0.00702 µM
[4] = HPLM + 10% dialyzed FBS, 0.0211 µM
[5] = HPLM + 10% dialyzed FBS, 0.0632 µM
[6] = HPLM + 10% dialyzed FBS, 0.19 µM
[7] = HPLM + 10% dialyzed FBS, 0.569 µM
[8] = HPLM + 10% dialyzed FBS, 1.71 µM
[9] = HPLM + 10% dialyzed FBS, 5.12 µM
[10] = HPLM + 10% dialyzed FBS, 15.4 µM
[11] = HPLM + 10% dialyzed FBS, 46.1 µM
[12] = RPMI 5 mM glucose + 10% FBS, 0.000781 µM
[13] = RPMI 5 mM glucose + 10% FBS, 0.00234 µM
[14] = RPMI 5 mM glucose + 10% FBS, 0.00702 µM
[15] = RPMI 5 mM glucose + 10% FBS, 0.0211 µM
[16] = RPMI 5 mM glucose + 10% FBS, 0.0632 µM
[17] = RPMI 5 mM glucose + 10% FBS, 0.19 µM
[18] = RPMI 5 mM glucose + 10% FBS, 0.569 µM
[19] = RPMI 5 mM glucose + 10% FBS, 1.71 µM
[20] = RPMI 5 mM glucose + 10% FBS, 5.12 µM
[21] = RPMI 5 mM glucose + 10% FBS, 15.4 µM
[22] = RPMI 5 mM glucose + 10% FBS, 46.1 µM
[23] = RPMI 5 mM glucose + 10% dialyzed FBS, 0.000781 µM
[24] = RPMI 5 mM glucose + 10% dialyzed FBS, 0.00234 µM
[25] = RPMI 5 mM glucose + 10% dialyzed FBS, 0.00702 µM
[26] = RPMI 5 mM glucose + 10% dialyzed FBS, 0.0211 µM
[27] = RPMI 5 mM glucose + 10% dialyzed FBS, 0.0632 µM
[28] = RPMI 5 mM glucose + 10% dialyzed FBS, 0.19 µM
[29] = RPMI 5 mM glucose + 10% dialyzed FBS, 0.569 µM
[30] = RPMI 5 mM glucose + 10% dialyzed FBS, 1.71 µM
[31] = RPMI 5 mM glucose + 10% dialyzed FBS, 5.12 µM
[32] = RPMI 5 mM glucose + 10% dialyzed FBS, 15.4 µM
[33] = RPMI 5 mM glucose + 10% dialyzed FBS, 46.1 µM

COc1ccc(C2CNC(=O)C2)cc1OC1CCCC1 (centres undefined)
cell viability [1]: 78.4%
cell viability [2]: 105%
cell viability [3]: 91.4%
cell viability [4]: 97.7%
cell viability [5]: 122%
cell viability [6]: 105%
cell viability [7]: 105%
cell viability [8]: 112%
cell viability [9]: 101%
cell viability [10]: 99.6%
cell viability [11]: 106%
cell viability [12]: 85.8%
cell viability [13]: 92.4%
cell viability [14]: 92%
cell viability [15]: 103%
cell viability [16]: 109%
cell viability [17]: 95.1%
cell viability [18]: 92.5%
cell viability [19]: 100%
cell viability [20]: 92.4%
cell viability [21]: 91.8%
cell viability [22]: 107%
cell viability [23]: 92.1%
cell viability [24]: 94.5%
cell viability [25]: 93.8%
cell viability [26]: 95.2%
cell viability [27]: 102%
cell viability [28]: 96.7%
cell viability [29]: 104%
cell viability [30]: 94.7%
cell viability [31]: 104%
cell viability [32]: 98.7%
cell viability [33]: 94.9%

C\C1=C(\C=C(\C#N)C(=O)N1)C2=CC=NC=C2
cell viability [1]: 98.3%
cell viability [2]: 114%
cell viability [3]: 117%
cell viability [4]: 116%
cell viability [5]: 133%
cell viability [6]: 118%
cell viability [7]: 123%
cell viability [8]: 131%
cell viability [9]: 114%
cell viability [10]: 103%
cell viability [11]: 108%
cell viability [12]: 94.7%
cell viability [13]: 108%
cell viability [14]: 110%
cell viability [15]: 104%
cell viability [16]: 109%
cell viability [17]: 111%
cell viability [18]: 106%
cell viability [19]: 127%
cell viability [20]: 103%
cell viability [21]: 97.5%
cell viability [22]: 71.5%
cell viability [23]: 112%
cell viability [24]: 108%
cell viability [25]: 119%
cell viability [26]: 118%
cell viability [27]: 115%
cell viability [28]: 114%
cell viability [29]: 120%
cell viability [30]: 115%
cell viability [31]: 114%
cell viability [32]: 110%
cell viability [33]: 81.2%

CN1CCN(c2ccc([N+](=O)[O-])c3no[n+]([O-])c23)CC1
cell viability [1]: 86.5%
cell viability [2]: 101%
cell viability [3]: 110%
cell viability [4]: 114%
cell viability [5]: 107%
cell viability [6]: 111%
cell viability [7]: 100%
cell viability [8]: 105%
cell viability [9]: 116%
cell viability [10]: 86.6%
cell viability [11]: 56.6%
cell viability [12]: 88.4%
cell viability [13]: 99.6%
cell viability [14]: 87.6%
cell viability [15]: 93.3%
cell viability [16]: 92.9%
cell viability [17]: 103%
cell viability [18]: 89.5%
cell viability [19]: 85.1%
cell viability [20]: 94.1%
cell viability [21]: 83.9%
cell viability [22]: 68.1%
cell viability [23]: 81.5%
cell viability [24]: 78.1%
cell viability [25]: 91.3%
cell viability [26]: 85.6%
cell viability [27]: 96.1%
cell viability [28]: 95.6%
cell viability [29]: 92.5%
cell viability [30]: 95.9%
cell viability [31]: 86.6%
cell viability [32]: 87.4%
cell viability [33]: 72.4%

Cc1ccc([S+](=O)([O-])N[C@@H](Cc2ccccc2)C(=O)CCl)cc1
cell viability [1]: 90.2%
cell viability [2]: 100%
cell viability [3]: 119%
cell viability [4]: 119%
cell viability [5]: 87.3%
cell viability [6]: 112%
cell viability [7]: 99.1%
cell viability [8]: 107%
cell viability [9]: 106%
cell viability [10]: 101%
cell viability [11]: 47.6%
cell viability [12]: 91.8%
cell viability [13]: 89.4%
cell viability [14]: 96%
cell viability [15]: 96.9%
cell viability [16]: 97.9%
cell viability [17]: 91.4%
cell viability [18]: 90.3%
cell viability [19]: 81%
cell viability [20]: 95.1%
cell viability [21]: 90.7%
cell viability [22]: 71.1%
cell viability [23]: 88.8%
cell viability [24]: 99.6%
cell viability [25]: 94.6%
cell viability [26]: 94.6%
cell viability [27]: 100%
cell viability [28]: 85.2%
cell viability [29]: 99.4%
cell viability [30]: 108%
cell viability [31]: 97.7%
cell viability [32]: 85.1%
cell viability [33]: 73.6%

Cc1c(NC(=O)OC[C@@H]2COCCN2)cn2ncnc(Nc3ccc4c(cnn4Cc4cccc(F)c4)c3)c12
cell viability [1]: 67.5%
cell viability [2]: 75.4%
cell viability [3]: 80.3%
cell viability [4]: 90.6%
cell viability [5]: 93.2%
cell viability [6]: 102%
cell viability [7]: 92.8%
cell viability [8]: 76%
cell viability [9]: 88.7%
cell viability [10]: 60.5%
cell viability [11]: 18.6%
cell viability [12]: 97.2%
cell viability [13]: 86.6%
cell viability [14]: 85.2%
cell viability [15]: 93.5%
cell viability [16]: 91.6%
cell viability [17]: 89.5%
cell viability [18]: 89.9%
cell viability [19]: 92.7%
cell viability [20]: 84.6%
cell viability [21]: 74.9%
cell viability [22]: 40%
cell viability [23]: 77.6%
cell viability [24]: 80.4%
cell viability [25]: 86.3%
cell viability [26]: 85.8%
cell viability [27]: 88.3%
cell viability [28]: 86.5%
cell viability [29]: 89%
cell viability [30]: 91.7%
cell viability [31]: 89.4%
cell viability [32]: 80.3%
cell viability [33]: 37.5%

CC(C)C1=C(O)C=C(O)C(=C1)C/2=N/NC(=O)N2C3=CC4=C(C=C3)[N](C)C=C4
cell viability [1]: 134%
cell viability [2]: 116%
cell viability [3]: 123%
cell viability [4]: 130%
cell viability [5]: 118%
cell viability [6]: 29.5%
cell viability [7]: 23.4%
cell viability [8]: 23.2%
cell viability [9]: 20.7%
cell viability [10]: 21%
cell viability [11]: 15.8%
cell viability [12]: 106%
cell viability [13]: 101%
cell viability [14]: 107%
cell viability [15]: 112%
cell viability [16]: 105%
cell viability [17]: 19.6%
cell viability [18]: 16.3%
cell viability [19]: 15.3%
cell viability [20]: 16.8%
cell viability [21]: 16.3%
cell viability [22]: 13.3%
cell viability [23]: 120%
cell viability [24]: 117%
cell viability [25]: 130%
cell viability [26]: 118%
cell viability [27]: 95.9%
cell viability [28]: 32.6%
cell viability [29]: 22.3%
cell viability [30]: 19.6%
cell viability [31]: 20%
cell viability [32]: 16.9%
cell viability [33]: 17.6%

O=c1[nH]c2ccccc2n1C1CCN(Cc2ccc(-c3nc4cc5nc[nH]c5cc4nc3-c3ccccc3)cc2)CC1
cell viability [1]: 95.9%
cell viability [2]: 126%
cell viability [3]: 114%
cell viability [4]: 126%
cell viability [5]: 133%
cell viability [6]: 130%
cell viability [7]: 108%
cell viability [8]: 97%
cell viability [9]: 90.7%
cell viability [10]: 103%
cell viability [11]: 95.9%
cell viability [12]: 101%
cell viability [13]: 119%
cell viability [14]: 108%
cell viability [15]: 113%
cell viability [16]: 123%
cell viability [17]: 113%
cell viability [18]: 115%
cell viability [19]: 107%
cell viability [20]: 111%
cell viability [21]: 121%
cell viability [22]: 118%
cell viability [23]: 98.8%
cell viability [24]: 104%
cell viability [25]: 109%
cell viability [26]: 105%
cell viability [27]: 116%
cell viability [28]: 116%
cell viability [29]: 103%
cell viability [30]: 107%
cell viability [31]: 97.9%
cell viability [32]: 115%
cell viability [33]: 102%

Cn1c(CNc2ccc(C(=N)N)cc2)nc2cc(C(=O)N(CCC(=O)O)c3ccccn3)ccc21
cell viability [1]: 109%
cell viability [2]: 106%
cell viability [3]: 103%
cell viability [4]: 109%
cell viability [5]: 103%
cell viability [6]: 95.5%
cell viability [7]: 116%
cell viability [8]: 119%
cell viability [9]: 125%
cell viability [10]: 124%
cell viability [11]: 111%
cell viability [12]: 92%
cell viability [13]: 92.8%
cell viability [14]: 94.6%
cell viability [15]: 95.5%
cell viability [16]: 99.3%
cell viability [17]: 98.7%
cell viability [18]: 97.7%
cell viability [19]: 109%
cell viability [20]: 97.3%
cell viability [21]: 103%
cell viability [22]: 111%
cell viability [23]: 94.5%
cell viability [24]: 91.3%
cell viability [25]: 95.9%
cell viability [26]: 93.8%
cell viability [27]: 113%
cell viability [28]: 99.6%
cell viability [29]: 94%
cell viability [30]: 104%
cell viability [31]: 96%
cell viability [32]: 110%
cell viability [33]: 116%
